Results as given in patent publication US9486456B2, “Treatment of esophageal motility disorder using sepiapterin, tetrahydrobiopterin and derivatives thereof” (The Board of Regents of the University of Texas System, priority 2006, dated 2016).
Read-outs that look alike come from different tables or passages of the source.

How the values were obtained:
gastric tissues = experiment: Nitrergic relaxation of gastric tissues after in vitro incubation (organ bath); design: species or system rat
gastric LM-MPs = experiment: NO release from gastric LM-MP incubated with DAHP; details: DAHP 10 mM, 48 hours, healthy female rat gastric LM-MP
Procedure: (§1) Gastric LM-MPs were incubated for 48 hrs in the presence or the absence of DAHP (10 mM) and nNOS dimerization (FIG. 9A-9B) in tissues and NO release (FIG. 9C) in the media were assessed. (n=3).
Gastric LM-MPs were incubated for 24 hours in DMEM supplemented with 2% neurobasal medium (NB27) and 1% antibiotics. The concentration of NO (micromoles/mg tissue) was measured using readily available NO kit (Cayman corporation). […] The present invention contemplates examining whether supplementation of BH4 and female sex hormones restores reduced NO release in diabetic female gastric LM-MP tissues.
(§2) The present invention examined whether treatment with DAHP in vitro uncoupled gastric nNOS dimerization and NO release in healthy female rats. Gastric longitudinal muscle-myenteric plexus (LM-MP) were incubated for 48 hours in the presence or absence of DHAP (10 mM). It was observed that inhibition of BH4 biosynthesis with DAHP decreased both nNOS dimerization (FIGS. 9A-9B) and NO release (FIG. 9C). These additional data further support the hypothesis that impaired biosynthesis of gastric BH4 accounts for the decrease in nNOS activity and nitrergic relaxation in female diabetic gastroparesis.

nNOS = nNOS dimerization in gastric LM-MP incubated in vitro; details: DAHP 10 mM, 48 hours, healthy female rat gastric LM-MP
Procedure: as §1, §2

female rats = experiment: Solid gastric emptying studies; type: in vivo, rat; details: for Effect on gastric emptying for solids: OVX female rats, 21 day release pellets E2 2 mg or P4 20 mg per kg
Procedure: In addition, using the similar gastric emptying protocol, accelerated gastric emptying was observed instead of delayed gastric emptying in spontaneous diabetic female but not in male diabetic animals (101).
According to the protocol, animals were fasted over night (provide water). On the next day, known amount of food was fed to the animals for 3 h. At the end of 3 h collected the remaining food from the cage and calculated the amount of food intake. Then fast the animals for 4 hrs without food and water. At the end of fast, animals were euthanized, collected the gastric tissue and measured the weight of the whole stomach. Then removed the food contents by opening the stomach and measured the empty stomach weight. The rate of gastric emptying was calculated according to the following equation: gastric emptying (% in 4 h)=(1−gastric content food intake^−1)×100.

nNOSalpha protein = nNOSalpha protein expression, Western blot; type: in vivo, rat; details: for nNOSalpha protein level: diabetic female rat gastric antrum, sepiapterin 10 days or BH4 2 weeks, 20 mg kg^−1 per day
Procedure: nNOSa protein was quantified in gastric antrum homogenates from all groups using standard western blot analysis, as described in our previous study (94). Proteins were measured by Bio-Rad protein assay (Bio-Rad, Hercules, Calif.) and 30 μg protein was separated by 6% SDS polyacrylamide gel electrophoresis (SDS-PAGE). The membrane was immunoblotted with polyclonal nNOSa primary antibody (Zymed Laboratories Inc., CA) and anti-rabbit IgG conjugated with horseradish peroxidase (Sigma Chemical, St. Louis, Mo.) as secondary antibody. Binding of antibodies to the blots was detected with enhanced chemiluminescence system (ECL, Amersham Pharmacia Biotech, Piscataway, N.J.) following manufacturer's instructions. Stripped blots were re-probed with g-tubulin specific polyclonal antibodies (Sigma Chemical, St. Louis, Mo.) to enable normalization of signals between samples. Band intensities were analyzed using Bio-Rad Gel Doc (Bio-Rad, Hercules, Calif.).

rats = experiment: Intragastric (antrum) pressure by ambulatory telemetry; type: in vivo, rat; details: L-NAME 200 mg/day/kg s.c. osmotic mini-pump, 4 days
Procedure: The intragastric antrum pressure (IGAP) was measured in normal and diabetic male (FIG. 3A) and female (FIG. 3B) rats. The transducer pressure catheter was introduced into the gastric antrum cavity 5 mm proximal to the pylorus to record IGAP (mmHg×sec). After recording the baseline IGAP, N^G-nitro-L-arginine methyl ester (L-NAME, 200 mg/day/kg body weight (BW)/rat) was administered subcutaneously in the same rats by osmotic mini-pumps (Alza, Palo Alto, Calif., model 2ML1 with a pumping rate of 10 μl/hour) for 4 days. All subsequent studies were performed 1 week after surgery in overnight fasted rats that were awake and in a free-moving state. Pressure recordings were performed at least 2-3 hours between 9-12 am. Bilateral ovariectomy was performed as reported previously. Dietary BH4 (25 mg/day/kg body weight (BE)/rat). *p<0.05. ANOVA.
Intragastric pressure (IGP) was measured using ambulatory telemetric device. […]
Dietary BH4 (25 mg/kg b.w/rat/day) was supplemented for female rats for 12 weeks beginning from day 2 after diabetic induction. Intragastric pressure (IGP) was measured in female control, diabetic and diabetic+BH4 treated rats. […] In another experiment, diabetic females were treated for 3 weeks with BH4 and nNOS alpha protein expression was measured in treated and untreated gastric tissues.

gastric muscle strips = experiment: EFS-induced nitrergic (NANC) relaxation of gastric muscle strips after in vivo treatment (organ bath); design: species or system rat
Procedure: Electric field stimulation (EFS)-induced NANC relaxation was studied in circular gastric antrum muscle strips. Muscle strips were tied with silk thread at both ends and were mounted in 10-ml water-jacketed organ baths containing Krebs buffer (11 mM glucose) at 37° C. and continuously bubbled with 95% O2-5% CO2 (Radnoti Glass Technology, Monrovia, Calif.). Tension for each muscle strip was monitored with an isometric force transducer and analyzed by a digital recording system (Biopac Systems, Santa Barbara, Calif.). A passive tension equal to 2 g was applied on each strip in the 1 h equilibration period through an incremental increase (0.5 g, four times, at 15 min interval). Gastric antrum muscle strips were exposed to atropine, phentolamine and propranolol (10 μmol each) in bath solution for 1 h to block cholinergic and adrenergic responses. 5-hydroxytryptamine (5-HT; 100 μM) pre-contracted strips were exposed to EFS (90 V, 2 Hz, 1-ms pulse for duration of 1 min) to elicit NANC relaxation.
To investigate the in vivo effect of methotrexate (MTX) on EFS induced nitrergic relaxation; a group of animals were supplemented with MTX (inhibitor of dihydro folate reductase, DHFR) 3.75 mg kg^−1 body wt. per twice a day for 4 days. Gastric strips from control animals and MTX treated animals were incubated in organ bath and nitrergic relaxation was measured by EFS. At the end of each experiment, the muscle strip was blotted dry with filter paper and weighed. Comparisons between groups were performed by measuring the area under the curve (AUC mg^−1 tissue) of the EFS-induced relaxation (AUCR) for 1 min and the baseline for 1 min (AUCB) according to the formula (AUCR−AUCB) weight of tissue (mg)^−1=AUC mg of tissue^−1.

[1] = test system: gastric antrum muscle strip; experiment: In vitro NO release from gastric antrum strips (total nitrite); design: species or system rat; details: 48 h incubation
Procedure: Animals from control groups were killed by CO2 asphyxiation, the abdominal cavity opened, and the stomach dissected and transferred in chilled oxygenated Krebs bicarbonate solution of the following composition (in mmol): 118.0 NaCl, 4.7 KCl, 25.0 NaHCO3, 1.5 CaCl2, 1.2 MgSO4, 1.2 KH2PO4, and 11.5 glucose (pH 7.4). Antrum tissue was harvested and cut into mucosa-free strips and were cultured for 48 h (37° C., 5% CO2) in […] of phenol red-free DMEM supplemented with NB27 (2%) and antibiotics (1%) in the presence of normal glucose (control), control+MTX (100 μM), control+MTX+SEP (100 μM, 100 μM). On completion of incubation, DMEM ([…]) was collected and stored at −80° C. for analysis of NO released in medium during incubation period. NO released in the medium was analyzed as total nitrite (metabolic byproduct of NO) following the protocol supplied with a commercially available kit (EMD Chemicals, Gibbstown, N.J.).

nNOSalpha = nNOSalpha dimerization, LT-SDS-PAGE, after in vivo treatment; design: species or system rat; details: for nNOSalpha dimmer/monomer level: diabetic female rat gastric antrum, sepiapterin 10 days or BH4 2 weeks, 20 mg kg^−1 per day
Procedure: Levels of nNOSa monomer and dimer were quantified by western blotting via Low temperature (LT)-PAGE in gastric antrum homogenates as described previously (94). LT-SDS-PAGE was performed on ice. The low-temperature process was used to identify nNOS dimers and monomers in the native state as low temperature is known to prevent monomerization of nNOS dimmers. For the low-temperature processing, 30 μg of protein in standard Laemmli buffer at 4° C. was used for SDS-PAGE. The mixture was incubated at 0° C. for 30 min before LT-SDS-PAGE using a 6% separating gel. All gels and buffers were pre-equilibrated to 4° C. prior to electrophoresis and the buffer tank placed in an ice-bath during electrophoresis to maintain the gel temperature below 15° C. A polyclonal antibody specific to nNOSa (Zymed Laboratories) and anti-rabbit IgG conjugated with horseradish peroxidase (Sigma Chemical, St. Louis, Mo.) were used as the primary and secondary antibodies, respectively.

[2] = Body weight in control and STZ-diabetic female rats; type: in vivo, rat; details: STZ-diabetic female rats + SEP 20 mg kg^−1 day^−1, 10 days
Procedure: (§3) Diabetes was induced in overnight fasted animals by a single intraperitoneal injection of streptozotocin (STZ, 55 mg kg^−1) (Sigma Chemical, St. Louis, Mo.) prepared in 9 mmol citrate buffer, pH 4.0. Control animals were injected with the vehicle (9 mmol citrate buffer, pH 4.0) (94). Blood glucose levels were examined in overnight fasted animals, 48 h post STZ injection. […] Blood glucose levels in vehicle-treated overnight fasting rats ranged between 80-95 mg dl^−1. Both control and diabetic female rats were selected during the diestrus phase of the estrous cycle using vaginal smear testing method [by measuring vaginal cytology (90-100% of leucocytes) under microscope] for further experiments. As reported earlier, 60-70% of diabetic rats show a persistent diestrous stage of the estrous cycle (data not shown) (95-96).
(§4) At the end of 7th week of diabetes induction, animals were divided into four groups, i.e. control female rats (C), diabetic female rats (DB), BH4 supplemented diabetic female rats (DB+BH4) and SEP supplemented diabetic female rats (DB+SEP). DB+BH4 were provided with BH4 pellets (20 mg kg^−1 body wt day^−1) for next 2 weeks. […] Tissue samples were snap frozen in liquid nitrogen and stored at −80° C. until analyzed. BH4 or SEP-pellets used in this study were prepared by compressing (Schircks Laboratories, Switzerland) with rodent chow and stored at −20° C. until used. […]

[3] = Fasting blood glucose in control and STZ-diabetic female rats; type: in vivo, rat
Procedure: as §3, §4

[4] = healthy female rats, MTX 3.75 mg kg^−1 i.p. twice a day, 4 days
[5] = diabetic female rats + dietary sepiapterin 20 mg kg^−1, 10 days

## Nc1cc(O)nc(N)n1 [DAHP, 2,4-diamino-6-hydroxypyrimidine]
Gastric tissues; DAHP 10 mM, 3 hours incubation, female control gastric tissues, n=2
  Effect on nitrergic relaxation: inhibited
Gastric LM-MPs
  Effect on NO release: decreased
nNOS
  Effect on nNOS dimerization: decreased

## C[C@]12CC[C@@H]3c4ccc(O)cc4CC[C@H]3[C@@H]1CC[C@@H]2O [E2, estradiol-17beta]
Female rats
  Effect on gastric emptying for solids: significantly delayed
Female rats; diabetic female rats, E2 2 mg/kg, 3 weeks
  Effect on delayed solid gastric emptying: significantly restored
nNOSalpha protein; diabetic female rat gastric tissues, E2 2 mg/kg 21 day pellet
  Effect on reduced nNOSalpha protein expression: significantly restored

## COC(=O)[C@@H](N)CCCNC(=N)N[N+](=O)[O-] [L-NAME, N^G-nitro-L-arginine methyl ester]
Gastric tissues; preincubation L-NAME 10^−4M, FC and FD groups, 2 Hz
  Effect on nitrergic relaxation: significant inhibition
rats; female rats
  Effect on IGAP: significantly elevated
rats; male rats
  Effect on IGAP: decreased

## CN(Cc1cnc2nc(N)nc(N)c2n1)c1ccc(C(=O)N[C@@H](CCC(=O)O)C(=O)O)cc1 [MTX, methotrexate]
Gastric muscle strips; [4]
  nitrergic relaxation, antrum, EFS 2 Hz: −0.08±0.04 AUC mg^−1 tissue
  nitrergic relaxation, fundus, EFS 2 Hz: −0.17±0.076 AUC mg^−1 tissue
  nitrergic relaxation, pylorus, EFS 2 Hz: −0.13±0.05 AUC mg^−1 tissue
[1]; MTX 100 μM
  NO release: 0.73±0.15
nNOSalpha; female rat gastric antrum, MTX 3.75 mg kg^−1 twice a day, 4 days
  nNOSalpha dimer/monomer ratio: 0.2±0.04

## CC(=O)[C@H]1CC[C@H]2[C@@H]3CCC4=CC(=O)CC[C@]4(C)[C@H]3CC[C@]12C [P4, progesterone]
Female rats
  Effect on gastric emptying for solids: not

## NC1=N[C@H](O)[C@H]2[C@H]3O[C@]4(O)O[C@@H]([C@@H](O)[C@@]2(N1)[C@@H]4O)[C@]3(O)CO [TTX, tetrodotoxin]
Gastric tissues
  Effect on nitrergic relaxation: abolished

## C[C@H](O)C(=O)C1=Nc2c(nc(N)[nH]c2=O)NC1 [sepiapterin]
[2]
  Body Weight: 188 ± 4.3 g
[2]; listed as SEP
  Body Weight: 188 ± 4.3 g
[3]; STZ-diabetic female rats + SEP, fasting
  Blood Glucose: 494.5 ± 13.96 mg/dL
[3]; both control and diabetic female rats
  Effect on blood glucose levels: unchanged
Female rats; control female rats + dietary sepiapterin 20 mg kg^−1, 10 days
  solid gastric emptying (% in 4 h): 74±4 % in 4 h
Female rats; [5]
  solid gastric emptying (% in 4 h): 67.0±8.2 % in 4 h
Gastric muscle strips; control female rats + sepiapterin
  nitrergic relaxation, gastric antrum, EFS 2 Hz: −0.51±0.06 AUC mg^−1 tissue
Gastric muscle strips; [5]
  nitrergic relaxation, gastric antrum, EFS 2 Hz: −0.35±0.03 AUC mg^−1 tissue
[1]; MTX 100 μM + SEP 100 μM
  NO release: 1.02±0.19
nNOSalpha protein; control female rat gastric antrum, BH4 or sepiapterin
  Change in nNOSalpha protein expression: no change
nNOSalpha protein
  nNOSalpha protein level: 0.88±0.15
nNOSalpha
  nNOSalpha dimmer/monomer level: 0.64±0.07

## C[C@H](O)[C@H](O)[C@H]1CNc2nc(N)[nH]c(=O)c2N1 [tetrahydrobiopterin]
nNOSalpha protein
  nNOSalpha protein level: 0.42±0.05
nNOSalpha
  nNOSalpha dimmer/monomer level: 0.36±0.11
